Measured values published in PubChem BioAssay (NCI).
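All cell lines were grown in 96-well plates and treated with compound for 48 hours. Abbreviation: GI50, concentration required for 50% inhibition of growth. TGI is the concentration that stops growth completely.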

How the values were obtained:
Test in all cases: NCI anticancer screen, dose series, 48 h
[1] = system: 786-0 renal
[2] = system: A498 renal
[3] = system: A549 NSCLC
[4] = system: ACHN renal
[5] = system: BT-549 breast
[6] = system: CAKI-1 renal
[7] = system: CCRF-CEM leukemia
[8] = system: COLO 205 colon
[9] = system: DU-145 prostate
[10] = system: EKVX NSCLC
[11] = system: HCC-2998 colon
[12] = system: HCT-116 colon
[13] = system: HCT-15 colon
[14] = system: HL-60(TB) leukemia
[15] = system: HOP-62 NSCLC
[16] = system: HOP-92 NSCLC
[17] = system: HS 578T breast
[18] = system: HT29 colon
[19] = system: IGROV1 ovarian
[20] = system: K-562 leukemia
[21] = system: KM12 colon
[22] = system: LOX IMVI melanoma
[23] = system: M14 melanoma
[24] = system: MALME-3M melanoma
[25] = system: MCF7 breast
[26] = system: MDA-MB-231 breast
[27] = system: MDA-MB-435
[28] = system: MOLT-4 leukemia

N#Cc1cnc2ccc(-c3cnc(N)nc3)cc2c1N1CCc2cc(F)c(Cl)cc21
GI50 [1]: 425 nM
TGI [1]: 3950 nM
GI50 [2]: 147 nM
TGI [2]: 552 nM
GI50 [3]: 479 nM
TGI [3]: 13200 nM
GI50 [4]: 489 nM
TGI [4]: 11900 nM
GI50 [5]: 239 nM
TGI [5]: 1800 nM
GI50 [6]: 268 nM
TGI [6]: 2800 nM
GI50 [7]: 486 nM
TGI [7]: > 100000 nM
GI50 [8]: 795 nM
TGI [8]: 2850 nM
GI50 [9]: 510 nM
TGI [9]: > 39500 nM
GI50 [10]: 496 nM
TGI [10]: 3950 nM
GI50 [11]: 572 nM
TGI [11]: 7500 nM
GI50 [12]: 917 nM
TGI [12]: 2640 nM
GI50 [13]: 385 nM
TGI [13]: 11500 nM
GI50 [14]: 705 nM
TGI [14]: 4380 nM
GI50 [15]: 434 nM
TGI [15]: > 21700 nM
GI50 [16]: 201 nM
TGI [16]: 1180 nM
GI50 [17]: 186 nM
TGI [17]: 774 nM
GI50 [18]: 587 nM
TGI [18]: 9740 nM
GI50 [19]: 235 nM
TGI [19]: 1260 nM
GI50 [20]: 997 nM
TGI [20]: > 100000 nM
GI50 [21]: 773 nM
TGI [21]: 4180 nM
GI50 [22]: 355 nM
TGI [22]: 7970 nM
GI50 [23]: 612 nM
TGI [23]: 8510 nM
GI50 [24]: 366 nM
TGI [24]: 2960 nM
GI50 [25]: 300 nM
TGI [25]: 14000 nM
GI50 [26]: 450 nM
TGI [26]: 7930 nM
GI50 [27]: 495 nM
TGI [27]: 3560 nM
GI50 [28]: 577 nM
TGI [28]: > 64600 nM
